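Tested at 5 concentrations; 48 h exposure; 96-well plates; endpoints linearly interpolated, else capped at highest concentration. TGI: concentration producing complete growth inhibition.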
Legend:
Assay in all cases: DTP human tumour cell line panel, 48 h
[1] = test system: NCI-H460 lung
[2] = test system: EKVX NSCLC
[3] = test system: KM12 colon
[4] = test system: HT29 colon
[5] = test system: SR leukemia
[6] = test system: ACHN renal
[7] = test system: MDA-MB-435
[8] = test system: RXF 393 renal
[9] = test system: OVCAR-5 ovarian
[10] = test system: SK-OV-3 ovarian
[11] = test system: UACC-257 melanoma

| Compound | TGI [1] | TGI [2] | TGI [3] | TGI [4] | TGI [5] | TGI [6] | TGI [7] | TGI [8] | TGI [9] | TGI [10] | TGI [11] |
| --- | --- | --- | --- | --- | --- | --- | --- | --- | --- | --- | --- |
| Cc1ccc2c(c1)C(C1Cc3c(C)cccc3C1=O)OC2=O (centres undefined) | > 100 µM | > 100 µM | > 100 µM | > 100 µM | > 100 µM | > 100 µM | > 100 µM | > 100 µM | > 100 µM | > 100 µM | > 100 µM |
| CCOP(=O)(CS(C)=O)O[C@@H]1C[C@H](C)CC[C@H]1C(C)C (some centres undefined) | 17.6 µM | 11.2 µM | > 28.7 µM | > 34.1 µM | > 100 µM | 15.8 µM | 11.9 µM | 7.83 µM | 15.2 µM | 19.9 µM | 18.7 µM |
| O=C1C(NCCc2cc(Br)c(O)c(Br)c2)=CC(=O)c2ncccc21 | 5.41 µM | 30.7 µM | 20.1 µM | > 30.6 µM | 6.46 µM | 24.9 µM | 3.09 µM | 29.1 µM | 20.2 µM | 68.1 µM | 7.73 µM |
| Cn1c(=O)nc2n(CCO)c(-c3ccccc3)c(-c3ccccc3)nc-2c1=O | > 100 µM | > 100 µM | > 100 µM | > 100 µM | > 100 µM | > 100 µM | > 100 µM | > 100 µM | > 100 µM | > 100 µM | > 100 µM |
| COc1cc(C2c3cccc4cccc(c34)C3CCC(=O)N32)cc(O)c1O (centres undefined) | > 50 µM | > 50 µM | > 50 µM | > 50 µM | 29.5 µM | > 50 µM | > 50 µM | > 50 µM | > 50 µM | > 50 µM | > 50 µM |
| COc1ccccc1NC(=O)C(C#N)=C(SC)SC | > 100 µM | > 100 µM | > 100 µM | > 100 µM | > 100 µM | > 100 µM | > 100 µM | > 100 µM | > 100 µM | > 100 µM | > 100 µM |
| CC(=O)Nc1c(C)cc(OCC(=O)O)cc1C | > 100 µM | > 100 µM | > 100 µM | > 100 µM | > 100 µM | > 100 µM | > 100 µM | > 100 µM | > 100 µM | > 100 µM | > 100 µM |
| CC[C@@]1(O)C(=O)OCc2c1c(Cl)c1n(c2=O)Cc2cc3ccccc3nc2-1 | 4.25 µM | > 70.5 µM | > 95.5 µM | > 100 µM | > 23.7 µM | 6.05 µM | > 100 µM | 15.1 µM | 85.8 µM | 45.5 µM | 26.7 µM |
| COc1ccc(/C=C/C(=O)NCC(NC(=O)/C=C/c2ccc(OC)c(OC)c2)C(=O)O)cc1OC (centres undefined) | > 100 µM | > 100 µM | > 100 µM | > 100 µM | > 100 µM | > 100 µM | > 100 µM | > 100 µM | > 100 µM | > 100 µM | > 100 µM |
